A short description of data set [1]: The drug is tested on Alistipes indistinctus strain: DSM22520 for biotransformation. The drug concentrations were measured before and after a 12-h incubation by liquid-chromatography-coupled mass spectrometry (LC–MS). Particulars: 2 µM.
A short description of data set [2]: The drug is tested on Coprococcus comes strain: ATCC27758 for biotransformation. The drug concentrations were measured before and after a 12-h incubation by liquid-chromatography-coupled mass spectrometry (LC–MS). Particulars: 2 µM. More on the design: dose 2 uM, timepoint 0 vs 12 hours. It counts as ADME.
For data set [3] the following is noted: enterocloster bolteae, 12 h, 2 µM.
Description: The drug is tested on Clostridium bolteae strain: ATCCBAA-613 for biotransformation. The drug concentrations were measured before and after a 12-h incubation by liquid-chromatography-coupled mass spectrometry (LC–MS)
For data set [4] the following is noted: bacteroides stercoris, 12 h, 2 µM.
Description: The drug is tested on Bacteroides stercoris strain: ATCC43183 for biotransformation. The drug concentrations were measured before and after a 12-h incubation by liquid-chromatography-coupled mass spectrometry (LC–MS)
A short description of data set [5]: The drug is tested on Collinsella intestinalis strain: DSM13280 for biotransformation. The drug concentrations were measured before and after a 12-h incubation by liquid-chromatography-coupled mass spectrometry (LC–MS). As to conditions: 2 µM.
The conditions of data set [6]: roseburia intestinalis, 12 h, 2 µM.
Description: The drug is tested on Roseburia intestinalis strain: L1-82 for biotransformation. The drug concentrations were measured before and after a 12-h incubation by liquid-chromatography-coupled mass spectrometry (LC–MS)
The conditions of data set [7]: bacteroides fragilis, 12 h, 2 µM.
Description: The drug is tested on Bacteroides fragilis strain: NCTC 9343 for biotransformation. The drug concentrations were measured before and after a 12-h incubation by liquid-chromatography-coupled mass spectrometry (LC–MS)

For `CCN1CCCC1CNC(=O)c1cc(S(=O)(=O)CC)c(N)cc1OC` (centres undefined) [AMISULPRIDE], the “Bacterial Biotransformation” value in data set [1], in data set [2], in data set [3], in data set [4], in data set [5] and in data set [6] was “Compound NOT metabolized” in each case. Also, the “Bacterial Biotransformation” value in data set [7] is listed as “Compound NOT metabolized”.

`CN1CCN(CC/C=C2/c3ccccc3Sc3ccc(S(=O)(=O)N(C)C)cc32)CC1` [THIOTHIXENE]: the “Bacterial Biotransformation” value was “Compound NOT metabolized” in data set [1]; “Compound NOT metabolized” in data set [2]; “Compound metabolized” in data set [3]; “Compound metabolized” in data set [4]; “Compound NOT metabolized” in data set [5]; “Compound metabolized” in data set [6]. For the same compound, in data set [7], the “Bacterial Biotransformation” value is “Compound metabolized”.

`CN1CCC[C@@H]1CCO[C@](C)(c1ccccc1)c1ccc(Cl)cc1.O=C(O)/C=C/C(=O)O` [CLEMASTINE FUMARATE]: the “Bacterial Biotransformation” value was “Compound NOT metabolized” in data set [1]; “Compound NOT metabolized” in data set [3]; “Compound metabolized” in data set [4]; “Compound NOT metabolized” in data set [5]; “Compound metabolized” in data set [6]; “Compound metabolized” in data set [7].

Consider `CC(C)C[C@H]1C(=O)N2CCC[C@H]2[C@]2(O)O[C@](NC(=O)[C@@H]3C=C4c5cccc6[nH]c(Br)c(c56)C[C@H]4N(C)C3)(C(C)C)C(=O)N12.CS(=O)(=O)O` [BROMOCRIPTINE MESYLATE], for which the “Bacterial Biotransformation” value in data set [1], in data set [3], in data set [4], in data set [5], in data set [6] and in data set [7] was “Compound metabolized” throughout.

Turning to `N[C@@H](Cc1ccc(N(CCCl)CCCl)cc1)C(=O)O`, the “Bacterial Biotransformation” value in data set [1], in data set [2], in data set [3], in data set [4], in data set [5] and in data set [6] was “Compound metabolized” throughout. In data set [7], the “Bacterial Biotransformation” value was “Compound metabolized”.

For the compound `C=CCc1ccccc1OCC(O)CNC(C)C` (centres undefined) [ALPRENOLOL], the “Bacterial Biotransformation” value in data set [1], in data set [2], in data set [3], in data set [4], in data set [5] and in data set [6] was “Compound NOT metabolized” each time. In data set [7], the “Bacterial Biotransformation” value was “Compound NOT metabolized”.

`COc1ccc2[nH]c([S+]([O-])Cc3ncc(C)c(OC)c3C)nc2c1` (centres undefined) [OMEPRAZOLE]: the “Bacterial Biotransformation” value in data set [1], in data set [2], in data set [3], in data set [4], in data set [5] and in data set [6] was “Compound metabolized” in each case. Further, the “Bacterial Biotransformation” value in data set [7] was “Compound metabolized”.

As to `CN1C[C@H](C(=O)N[C@]2(C)O[C@@]3(O)[C@@H]4CCCN4C(=O)[C@H](Cc4ccccc4)N3C2=O)C=C2c3cccc4[nH]cc(c34)C[C@H]21.CN1C[C@H](C(=O)N[C@]2(C)O[C@@]3(O)[C@@H]4CCCN4C(=O)[C@H](Cc4ccccc4)N3C2=O)C=C2c3cccc4[nH]cc(c34)C[C@H]21.O=C(O)C(O)C(O)C(=O)O` [ERGOTAMINE TARTRATE], the “Bacterial Biotransformation” value is recorded as “Compound NOT metabolized” in data set [1]; “Compound metabolized” in data set [3]; “Compound metabolized” in data set [4]; “Compound NOT metabolized” in data set [5]; “Compound NOT metabolized” in data set [6]; “Compound metabolized” in data set [7].

`CC(=O)O[C@]1(C(C)=O)CC[C@H]2[C@@H]3C=C(Cl)C4=CC(=O)[C@@H]5C[C@@H]5[C@]4(C)[C@H]3CC[C@@]21C` [CYPROTERONE ACETATE]: the “Bacterial Biotransformation” value in data set [1] is reported as “Compound NOT metabolized”; in data set [2], “Compound NOT metabolized”; in data set [3] it was “Compound NOT metabolized”; in data set [4], “Compound metabolized”; in data set [5], “Compound NOT metabolized”; in data set [6] it was “Compound NOT metabolized”. Further, the “Bacterial Biotransformation” value in data set [7] is on record as “Compound metabolized”.

`Br.CN(C)CCCC1(c2ccc(F)cc2)OCc2cc(C#N)ccc21` (centres undefined) [CITALOPRAM HYDROBROMIDE]: the “Bacterial Biotransformation” value in data set [1], in data set [2], in data set [3], in data set [4], in data set [5] and in data set [6] was “Compound NOT metabolized” each time. Further, the “Bacterial Biotransformation” value in data set [7] is on record as “Compound NOT metabolized”.

On to `CC(Oc1c(Cl)cccc1Cl)C1=NCCN1` (centres undefined) [LOFEXIDINE], for which the “Bacterial Biotransformation” value in data set [1] is reported as “Compound metabolized”; in data set [2] it was “Compound metabolized”; in data set [3] it was “Compound metabolized”; in data set [4] it was “Compound metabolized”; in data set [5] it was “Compound NOT metabolized”; in data set [6], “Compound metabolized”. The “Bacterial Biotransformation” value in data set [7] is on record as “Compound metabolized”.

Take `CC[C@H](C)C(=O)O[C@H]1CCC=C2C=C[C@H](C)[C@H](CC[C@@H]3C[C@@H](O)CC(=O)O3)[C@H]21` [MEVASTATIN]: the “Bacterial Biotransformation” value in data set [1], in data set [2], in data set [3], in data set [4], in data set [5] and in data set [6] was “Compound metabolized” in each case. The “Bacterial Biotransformation” value in data set [7] is “Compound metabolized”.

For the compound `COc1cc2c(c(OC)c1OC)-c1ccc(OC)c(=O)cc1[C@@H](NC(C)=O)CC2` [COLCHICINE], the “Bacterial Biotransformation” value is reported as “Compound NOT metabolized” in data set [1]; “Compound NOT metabolized” in data set [2]; “Compound NOT metabolized” in data set [3]; “Compound metabolized” in data set [4]; “Compound NOT metabolized” in data set [5]; “Compound metabolized” in data set [6]. The “Bacterial Biotransformation” value in data set [7] is “Compound metabolized”.

Regarding `CCN(CC)CCOCCOC(=O)C1(c2ccccc2)CCCC1.O=C(O)CC(O)(CC(=O)O)C(=O)O` [CARBETAPENTANE CITRATE], the “Bacterial Biotransformation” value in data set [1], in data set [2], in data set [3], in data set [4], in data set [5] and in data set [6] was “Compound metabolized” throughout. The “Bacterial Biotransformation” value in data set [7] was “Compound metabolized”.

On to `CCOC(=O)[C@H](CCc1ccccc1)N[C@@H](C)C(=O)N1[C@H](C(=O)O)C[C@H]2CCCC[C@@H]21` [TRANDOLAPRIL], for which the “Bacterial Biotransformation” value is listed as “Compound NOT metabolized” in data set [1]; “Compound NOT metabolized” in data set [2]; “Compound metabolized” in data set [3]; “Compound NOT metabolized” in data set [6]; “Compound metabolized” in data set [7].

As for `CC(C(=O)O)c1ccc2c(c1)Cc1cccnc1O2` (centres undefined) [PRANOPROFEN], the “Bacterial Biotransformation” value is on record as “Compound metabolized” in data set [1]; “Compound metabolized” in data set [2]; “Compound metabolized” in data set [3]; “Compound metabolized” in data set [4]; “Compound NOT metabolized” in data set [6]; “Compound metabolized” in data set [7].

For the compound `CCc1oc2ccccc2c1C(=O)c1cc(Br)c(O)c(Br)c1` [BENZBROMARONE], the “Bacterial Biotransformation” value in data set [1], in data set [2], in data set [4], in data set [6] and in data set [7] was “Compound NOT metabolized” throughout.

As for `CSc1ccc2c(c1)C(N1CCN(C)CC1)Cc1ccccc1S2.O=C(O)/C=C\C(=O)O` (centres undefined), the “Bacterial Biotransformation” value in data set [1], in data set [3], in data set [4], in data set [5], in data set [6] and in data set [7] was “Compound NOT metabolized” in each case.

For the compound `CC(C)(C#N)c1cc(Cn2cncn2)cc(C(C)(C)C#N)c1` [ANASTROZOLE], the “Bacterial Biotransformation” value was “Compound NOT metabolized” in data set [1]; “Compound NOT metabolized” in data set [2]; “Compound NOT metabolized” in data set [3]; “Compound metabolized” in data set [4]; “Compound NOT metabolized” in data set [6]; “Compound metabolized” in data set [7].

In the case of `COc1ccc2[nH]c([S+]([O-])Cc3ncc(C)c(OC)c3C)nc2n1` (centres undefined) [TENATOPRAZOLE], the “Bacterial Biotransformation” value in data set [1], in data set [2], in data set [4], in data set [5], in data set [6] and in data set [7] was “Compound metabolized” each time.
